# Measured values from patent US6967212B2, “Substituted azole acid derivatives useful as antidiabetic and antiobesity agents and method” (Bristol-Myers Squibb Company, priority 2001, dated 2005).
# Marks after values point to notes of the source that are not given here.
# Tests used:
# [1] = molecular target: PPARγ (Chlorocebus sabaeus, UniProt A0A0D9RBU3); assay: Inhibition of rosiglitazone induced SEAP reporter transactivation in CV-1 cells; assay type: cell-based, primate; details: read-out: ED50 for inhibition of rosiglitazone induced transactivation of SEAP gene, PPAR responsive SEAP reporter
# From the text: The established CV-1 cells (primate kidney origin), that show expression of endogenous PPARγ, were stably transfected with a PPAR responsive secreted alkaline phosphatase (SEAP) reporter gene.
# CV-1 cells (these cell express endogenous PPARγ gene) were transfected with a 3×PPRE-SEAP reporter gene DNA construct and stable colonies were selected, expanded and tested for responsiveness to compounds using standard protocols. SEAP reporter gene constructs were made by inserting 3 repeats of the rat fatty acid binding protein PPRE including the 7 nucleotides immediately 5′ to the SV40 early minimal promoter of pSEAP2 (Clontech). 1.2×10^6 CV-1/PPRE-SEAP cells were plated in a 96 well plate one day before compound addition. […] 150 μl aliquots of each concentration were delivered to two non-adjacent wells. […] Media was collected in fresh 96 well plates 40 hrs following incubation with compounds and assayed for SEAP activity. […] The plate was incubated for 5′ in the dark, and then the fluorescence measured in a CytoFluor series 4000 plate reader (Perseptive Biosystems): excitation filter, 450/50 nm; emission filter, 580/50 nm; 8 cycles, 1 minute/cycle, 3 reads/well/cycle. […] The ED50 values were calculated using standard equations for mid-point of the activity inhibition curves.
# [2] = test system: mouse 3T3-L1 pre-adipocytes; assay: Inhibition of rosiglitazone induced differentiation of 3T3-L1 pre-adipocytes (glycerol release); assay type: cell-based; details: rosiglitazone induced differentiation of 3T3-L1 cells
# Description: PPARγ has been considered a major trigger for the adipocyte differentiation process (see Tontonoz et al., Current Biology, 571-576, 1995).
# 5×10^5 3T3-L1 cells per plate were added to 96 well plates and cultured in DMEM-high glucose and 10% FBS medium for two days, before induction. Cells were induced for 48 hr with 1 μm dexamethasone, 5 μg/ml insulin, and […] isobutylmethylxanthine (IBMX) in the same medium. […] After a total of 5 days incubation, 4 μl of media from each well were collected and diluted into 40 μl of H2O in 96 well ELISA plate, 300 μl of Triglycerides Blank Reagent (Bayer Diagnostics) was added into each well and incubated for 5 min at room temperature. […] The ED50 values were calculated using standard equations for mid-point of the activity inhibition curves.
# [3] = molecular target: T1, human PPARα ligand binding domain (Homo sapiens, UniProt Q07869); assay: PPARα ligand binding study with purified ligand binding domain; details: competition with labeled PPARα ligand BMS-compound B
# T1 sequence (Q07869 239-466 limits assumed): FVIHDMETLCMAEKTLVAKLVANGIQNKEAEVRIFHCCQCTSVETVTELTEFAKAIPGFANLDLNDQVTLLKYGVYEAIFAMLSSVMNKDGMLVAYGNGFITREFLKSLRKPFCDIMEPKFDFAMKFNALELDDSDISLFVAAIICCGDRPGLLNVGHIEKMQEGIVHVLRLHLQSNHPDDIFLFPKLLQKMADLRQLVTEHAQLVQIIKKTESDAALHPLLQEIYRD
# From the text: FIG. 1B: Illustrates the binding of a labeled authentic PPARα ligand (BMS-compound B) to human PPARα binding domain.
# Compound Y is a compound synthesized by the scheme outlined in Example 1 herein. […] The in vitro ligand binding studies with purified ligand binding domain thus show the ability of Compound Y to bind potently to both PPARγ and PPARα. It is however, well known for the nuclear hormone receptor family of transcription factors that (PPARs are members of this family) that a compound which potently binds to (i.e. a ligand) can act as an agonist (ligand which activates) and an antagonist (ligand which inactivates the receptor).
# [4] = test system: diet induced obese mice; assay: Diet induced obese mice: body composition, plasma and liver parameters; assay type: in vivo
# From the text: As indicated before, changes in lipid and glycemic conditions are two potential concerns of reducing PPARγ activity. Based on the study described here it is concluded that safe reduction of fat mass in an obese diabetic mammal (including human) is possible through administration of a dual PPARγ antagonist/PPARα agonist. This feature is in contrast to the observed hyperlipidemia and hyperglycemia in lipodystrophic patients and in patients with severe mutations in PPARγ gene.
# In obese mice, as in obese human, the liver lipid level is elevated. Often, this is accompanied by an increase in plasma liver enzyme ALT level indicating to liver damage. Upon treatment with dual PPARγ antagonist/PPARα agonist Compound Y there was a substantial reduction in liver triglyceride content, although not reaching statistical significance, which was accompanied by a significant reduction in plasma liver enzyme ALT levels. Both these changes are indicative of improvement in liver function as a result of stimulation of PPARα mediated fatty acid oxidation and reduction of lipid synthesis leading to reduced lipid content (see. Torra et al., Current Opinion in Lipidology, 10: 151-159, 1999; Kersten et al., Nature, 405: 421424, 2000).
# C57BL/6 mice were fed a diet rich in fat (40%) and sucrose (40%) (see, York {Genetic models of obesity} and Sclafani {Dietary models of obesity}, both in Obesity, Bjorntorp and Brodoff eds. JB Lippincott Company, 1992; McIntosh and Pederson; McNeill. eds. CRC press LLC, 337-398, 1999; Farrelly et al., Proc. Natl. Acad. Sci. 96: 14511-14516, 1999). Under these dietary conditions, C57BL/6 mice gain considerable body weight and become obese. These mice were treated with a dual PPARγ antagonist/PPARα agonist (dose 0.01 to 100 mg/kg/day), administered in a pharmacologically acceptable vehicle (such as but not limited to, 5% CM-cellulose) through orally, intravenous, subcutaneous or intraportal injection, or mixed with food or water, acutely or over an extended period of time. During the course of the study, various parameters such as water and food consumption, body weight gain, body composition by dual emission X-ray analyzer (DEXA, this instrument accurately measures body fat mass, body lean muscle mass and body bone mineral content), body temperature was measured by standard methods. Through tail vein bleeding, blood was collected in heparin-EDTA coated tubes to prevent clotting and blood plasma was separated and analyzed for glucose, free fatty acids, triglycerides and cholesterol using reagent kits available from Roche Diagnostics in a COBAS-MIRA instrument. Insulin and leptin are measured by commercially available ELISA kits. Compounds that act to reduce body weight and or decrease glucose were selected. At the end of the treatment period animals were euthanized by brief exposure to CO2 and internal organs such as liver and white adipose tissue were harvested for additional analysis. These analyses may include, but not limited to, determination of lipid content, and effect on various PPARγ and PPARα target gene expression.
# [5] = molecular target: T2, PPARα (Homo sapiens, UniProt Q07869); assay: PPARα dependent SEAP reporter transactivation in HepG2 cells; assay type: cell-based
# T2 construct: HepG2 cells (human liver origin), that express endogenous PPARα gene were stably transfected with a PPAR responsive SEAP reporter gene; endogenous in cells; host or cells: HepG2 cells stably transfected with a PPAR responsive SEAP reporter
# T2 sequence (Q07869 1-468): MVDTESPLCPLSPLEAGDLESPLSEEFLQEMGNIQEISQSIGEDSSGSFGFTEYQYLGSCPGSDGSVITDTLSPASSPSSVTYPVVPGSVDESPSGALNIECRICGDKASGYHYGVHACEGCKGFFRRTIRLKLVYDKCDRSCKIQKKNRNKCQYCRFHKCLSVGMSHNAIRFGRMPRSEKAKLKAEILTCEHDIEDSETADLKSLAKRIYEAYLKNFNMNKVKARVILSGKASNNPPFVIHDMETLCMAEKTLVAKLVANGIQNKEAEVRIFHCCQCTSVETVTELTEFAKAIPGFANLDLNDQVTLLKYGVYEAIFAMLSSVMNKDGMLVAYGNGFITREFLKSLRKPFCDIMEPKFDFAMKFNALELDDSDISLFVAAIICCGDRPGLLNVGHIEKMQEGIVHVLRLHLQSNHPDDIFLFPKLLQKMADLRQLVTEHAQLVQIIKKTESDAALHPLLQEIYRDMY
# From the text: HepG2 cells (human liver origin), that express endogenous PPARα gene were stably transfected with a PPAR responsive SEAP reporter gene.
# Reporter gene constructs were made by inserting either 3 repeats of the rat fatty acid binding protein PPRE including the 7 nucleotides immediately 5′, or 4 repeats of the gal4 response element upstream of the SV40 early minimal promoter of pSEAP2 (Clontech), 3×PPRE-SEAP and gal4-SEAP respectively. The chimeric receptor was made by cloning the cDNA encoding the ligand binding domain of human PPAR α in frame and 3′ to the gal4 DNA binding domain (amino acids 1-47) in the mammalian bicistronic expression vector pIRESlneo (Clontech), gal4-PPAR α. […] Following the incubation, media was removed, and endogenous phosphatases were inactivated as indicated above and SEAP activity in 25 μl aliquots of processed media was assayed in clear bottom, black 96 well plate (Falcon) by the addition of 100 μl Attophos reagent (Promega), incubation for 5 minutes in the dark at room temperature, and measuring the increase in fluorescence (excitation 450 nm, emission 580 nm) in a CytoFluor series 4000 plate reader (Perseptive Biosystems) 8 cycles, 1 minute/cycle. The relative rates of fluorescence emission were calculated as fold increase over DMSO control. […] The ED50 values were calculated using standard equations for mid-point of the activity curves.
# [6] = test system: obese diabetic db/db mice; assay: Plasma glucose and lipids in treated obese diabetic db/db mice; assay type: in vivo; details: 3 mg/kg/day
# From the text: As illustrated in Table 3 treatment of obese diabetic db/db mice with the dual PPARγ antagonist/PPARα agonist Compound Y results in no significant change in plasma glucose and a significant decrease in plasma triglycerides and free fatty acids levels. As indicated before, changes in lipid and glycemic conditions are two significant potential concerns of reducing PPARγ activity. Based on the study described here it is concluded that obese mammals can be safely treated with a dual PPARγ antagonist/PPARα agonist. The reduction in plasma triglycerides and free fatty acids are likely due to the […] activity of Compound Y.
# [7] = molecular target: T3, human PPARγ ligand binding domain (Homo sapiens, UniProt P37231); assay: PPARγ ligand binding study with purified ligand binding domain; details: competition with labeled PPARγ ligand BMS-compound A
# T3 sequence (P37231 238-503 limits assumed): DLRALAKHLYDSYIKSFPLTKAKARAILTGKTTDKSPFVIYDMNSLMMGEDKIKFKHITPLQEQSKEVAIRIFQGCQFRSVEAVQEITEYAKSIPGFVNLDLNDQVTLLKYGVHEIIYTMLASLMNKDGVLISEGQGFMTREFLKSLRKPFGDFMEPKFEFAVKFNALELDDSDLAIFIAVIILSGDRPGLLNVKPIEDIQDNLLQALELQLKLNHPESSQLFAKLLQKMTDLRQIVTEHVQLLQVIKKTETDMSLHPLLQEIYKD
# From the text: Compound Y is a compound synthesized by the scheme outlined in Example 1 herein.
# [8] = test system: Gene expression in WAT; assay: Gene expression profiling of white adipose tissue of treated db/db mice; assay type: in vivo; details: obese diabetic db/db mice
# From the text: Examples of such genes include adipophilin and keratinocyte fatty acid binding protein, the gene products of these genes are involved in intracellular fatty acid trafficking).
# Adipose (fat) tissue is a major place of synthesis of PAI-1, a risk factor for thrombosis, angiotensinogen precursor, a risk factor for hypertension and renin, a risk factor for hypertension (see Ahima and Flier, TEM, 11: 327-332, 2000).
# [9] = 10 mg/kg/day once a day, 3 weeks
# [10] = 10 mg/kg/day, 3 weeks, P < 0.05
# [11] = 3 weeks at 10 mg/kg/day, once a day
# PPARγ, sequence (A0A0D9RBU3 entry or part of it): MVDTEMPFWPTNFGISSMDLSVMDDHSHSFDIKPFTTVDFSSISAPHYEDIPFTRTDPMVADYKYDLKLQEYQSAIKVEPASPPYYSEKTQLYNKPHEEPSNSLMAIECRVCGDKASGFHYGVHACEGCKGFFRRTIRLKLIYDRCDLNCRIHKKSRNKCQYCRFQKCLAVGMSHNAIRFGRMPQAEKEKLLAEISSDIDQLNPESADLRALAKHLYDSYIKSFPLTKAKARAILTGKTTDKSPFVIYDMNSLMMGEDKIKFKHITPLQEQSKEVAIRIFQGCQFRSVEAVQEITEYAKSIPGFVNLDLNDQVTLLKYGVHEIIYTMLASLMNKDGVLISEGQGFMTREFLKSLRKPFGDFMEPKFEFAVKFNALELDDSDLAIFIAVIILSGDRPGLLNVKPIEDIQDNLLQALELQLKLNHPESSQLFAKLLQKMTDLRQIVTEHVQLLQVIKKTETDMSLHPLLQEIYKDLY
compound,measurement,setting,value
Cc1oc(-c2ccccc2)nc1CCOc1cccc(Cc2nn(-c3ccccc3)nc2C(=O)O)c1 [Compound Y],EC50,[1],1500 nM
same,ED50 for inhibition of differentiation,[2],9900 nM
same,IC50,[3],69 nM
same,"plasma lipid (free fatty acids, triglycerides and cholesterol) and glycemic (glucose and insulin) parameters (in words)",[4],very little change
same,Liver triglycerides,[4]; 10 mg/kg/day,55.4 ± 7.0 mg/g
same,% Fat body mass,[4]; [9],41.5 ± 1.8%
same,% Lean body mass,[4]; [9],56.0 ± 1.8%
same,"% Fat body mass, change versus vehicle",[4]; [10],(−12%)*
same,"% Lean body mass, change versus vehicle",[4]; [10],(+11%)*
same,"ALT, change versus vehicle","[4]; 10 mg/kg/day, P < 0.05",(−38%)*
same,"Liver triglycerides, change versus vehicle","[4]; 10 mg/kg/day, not statistically significant",(−24%)
same,body weight (in words),[4]; [11],no significant reduction in body weight
same,increase in lean body mass,[4]; [11],14%
same,reduction of body fat mass,[4]; [11],15%
same,ALT,"[4]; plasma, 10 mg/kg/day",98.0 ± 12.6 IU/L
same,Cholesterol,"[4]; plasma, 10 mg/kg/day",270.4 ± 9.4 mg/dL
same,Glucose,"[4]; plasma, 10 mg/kg/day",260.7 ± 12.3 mg/dL
same,Insulin,"[4]; plasma, 10 mg/kg/day",8.2 ± 1.2 ng/mL
same,Triglyceride,"[4]; plasma, 10 mg/kg/day",105.5 ± 8.1 mg/dL
same,EC50,[5],587 nM
same,Free fatty acids,[6],0.76 ± 0.12 meq/L
same,Glucose,[6],683.0 ± 25.2 mg/dL
same,"Glucose, change versus vehicle",[6],−13%
same,Triglyceride,[6],145.3 ± 12.5 mg/dL
same,"Free fatty acids, change versus vehicle",[6]; p < 0.05,−36%*
same,"Triglyceride, change versus vehicle",[6]; p < 0.05,−45%*
same,IC50,[7],69 nM
same,Adipophilin gene expression in WAT,[8],4.1
same,Angiotensinogen precursor gene expression in WAT,[8],0.46
same,Glycerol-3 PO4 dehydrogenase gene expression in WAT,[8],0.39
same,HMGic gene expression in WAT,[8],2.2
same,Keratinocyte fatty acid binding protein gene expression in WAT,[8],3.3
same,PAI-1 gene expression in WAT,[8],0.45
"CCCCCCCC1SC(CC(=O)N(Cc2ccccc2)Cc2ccccc2)C(=O)N1CCCCc1ccc(C(=O)O)cc1 (stereo not drawn) [GW0072, reference compound]",ED50 for inhibition of differentiation,[2],585 nM
same,IC50,[7],280 nM
"CCCCCCCN(CCc1ccc(O[C@@](C)(CC)C(=O)O)cc1)C(=O)Nc1ccc(F)cc1F [GW-2331, reference compound]",IC50,[3],410 nM
"CN(CCOc1ccc(CC2SC(=O)NC2=O)cc1)c1ccccn1 (stereo not drawn) [rosiglitazone, reference compound]",G-protein coupled receptor 26 gene expression in WAT,[8],4.3
same,Renin gene expression in WAT,[8],13.9
BMS-250773 [reference compound],EC50,[5],63 nM
